This is an account of results in patent publication US10525056B2, “Procaspase-activating compounds and methods” (The Board of Trustees of the University of Illinois, priority 2011, dated 2020).

Like-named read-outs stand apart in the source and are kept apart here.

For series [1], the system named is U-937 human lymphoma cells. The series is described as follows: 72 Hour IC50 Cell Death Assay (sulforhodamine B). The format is cell-based. Conditions: read-out: 72-hour IC50 (μM), U-937 cells, 72 h treatment, average ± SEM of three experiments. Here is the method:
U-937 human lymphoma cells were plated into the wells of 96 well plate at a density of 15,000 cells per well in 99 μL of RPMI 1640 growth media with 10% FBS and 1% pen-strep. To each well was added 1 μL of compound stock solutions in DMSO at varying concentrations such that the cells were treated with concentrations between 0 μM and 100 μM compound. Each concentration was tested in quintuplicate per plate. In each plate 5 wells received 20 μM doxorubicin as a positive death control and 5 wells received […] as a negative control.
After the 72 hour incubation period, the plates were analyzed using a Sulforhodamine B assay (Vichai and Kirtikara, Nat Protoc 2006, 1, 1112-1116). Specifically, to each well of the plate 25 μL of a 50% (w/v) solution of trichloroacetic acid in H2O was added and the plates were incubated for 4 hours at 4° C. The plates were then washed gently with water five times. The plates were allowed to air dry after which 100 μL of a 0.057% (w/v) Sulforhodamine B in a 1% (v/v) acetic acid solution was added to each well for 30 minutes at room temperature. The plates were gently washed 5 times with 1% (v/v) acetic acid and air dried. 200 μL of 10 mM Tris base (pH 10.4) was added to each well and the plates were placed on an orbital shaker for thirty minutes. The level of SRB was quantified fluorometrically at excitation and emission wavelengths 488 and 585 nm, respectively, on a Molecular Devices plate reader and the percent cell death calculated and normalized to the positive control (100% cell death) and the negative control (0% cell death). The percent cell death was averaged for each compound concentration and plotted as a function of compound concentration. The data were fit to a logistical dose response curve using Table curve 2D and the IC50 value was calculated. The experiment was repeated three times and the average of the calculated IC50 values was reported. The standard error of the mean (SEM) was determined and reported for the triplicate experiments.

The subject of the next series is U-937 cells. Put plainly: Induction of apoptosis by hit compounds (Annexin V-FITC/propidium iodide flow cytometry). The format is cell-based. The following applies: Homo sapiens, 7.5 μM compound, 24 hours. The method, then:
U-937 Cells (1 mL of 6×10^5 cells/mL) were treated with 10 μL of 750 μM DMSO solutions of the compounds to achieve a final concentration of 7.5 μM. […] The cells were harvested via centrifugation (200 g for 5 minutes), washed with PBS (2 mL), and resuspended in 450 μL Annexin V Binding Buffer. To each sample was added 3.5 μL of FITC conjugated Annexin V stain (Southern Biotech) and 3.5 μL of propidium iodide (Sigma) to a final concentration of 50 μg/mL. Cell populations were analyzed on a Benton Dickinson LSR II cell flow cytometer.
(In flow cytometry, cells or beads pass a laser one at a time.)

The test system of series [2] is U-937 human lymphoma cells. The series is described as follows: Cell death assay for initial screen (Annexin V-FITC/propidium iodide flow cytometry). The format is cell-based. Conditions: U-937 cells, 20 μM compound, 24 hours. Here is the method: Apoptotic cell death was assessed by flow cytometry, using Annexin V-FITC/propidium iodide staining.
Compound (2 μL of a 10 mM DMSO solution) was added in singlet by direct addition to a well containing 998 μL U-937 cells (1×10^6) in RPMI 1640 media (10% FBS) at a final compound concentration of 20 μM. […] The cells were double stained with FITC-Annexin V and propidium iodide and a cell population of at least 10,000 events was collected by the LSR II flow cytometer. Percent viable cells (Annexin V—negative, propidium iodide—negative) were determined using FCS Express software.

For series [3] the following is noted: mice, for 48 hours; cited from earlier work.
The conditions of series [4]: research dogs, for 48 hours; cited from earlier work.

As for `COc1ccc(CN2CCN(CC(=O)N/N=C/c3cc(C(C)(C)C)cc(C(C)(C)C)c3O)CC2)cc1` [3{2,7}, N′-(3,5-di-tert-butyl-2-hydroxybenzylidene)-2-(4-(4-methoxybenzyl)piperazin-1-yl)acetohydrazide], the half-inhibitory concentration (IC50) in series [1] worked out at 1.8 ± 0.2 µM. For the same compound, the cytotoxicity at 7.5 µM in the series with U-937 cells came out at 90%.
The like results for `COc1ccc(OC)c(CN2CCN(CC(=O)N/N=C/c3cc(C(C)(C)C)cc(C(C)(C)C)c3O)CC2)c1` [3{4,7}, N′-(3,5-di-tert-butyl-2-hydroxybenzylidene)-2-(4-(2,5-dimethoxybenzyl)piperazin-1-yl)acetohydrazide] were, in that order, 1.6 ± 0.2 µM and 53%.
As to `CC(C)(C)c1cc(/C=N/NC(=O)CN2CCN(Cc3ccc(OCc4ccccc4)cc3)CC2)c(O)c(C(C)(C)C)c1` [3{18,7}, 2-(4-(4-(benzyloxy)benzyl)piperazin-1-yl)-N′-(3,5-di-tert-butyl-2-hydroxybenzylidene)acetohydrazide], the IC50 in series [1] worked out at 1.4 ± 0.2 µM. In the series on U-937 cells, this compound had a cytotoxicity at 7.5 µM of 97%.
The like results for `C=CCc1cccc(/C=N/NC(=O)CN2CCN(Cc3ccc(C(C)(C)C)cc3)CC2)c1O` [3{20,24}, N′-(3-allyl-2-hydroxybenzylidene)-2-(4-(4-(tert-butyl)benzyl)piperazin-1-yl)acetohydrazide] were, in that order, 0.9 ± 0.03 µM and 83%.
`CC(C)(C)c1cc(/C=N/NC(=O)CN2CCN(Cc3ccc4ccccc4c3)CC2)c(O)c(C(C)(C)C)c1` [3{25,7}, N′-(3,5-di-tert-butyl-2-hydroxybenzylidene)-2-(4-(naphthalen-2-ylmethyl)piperazin-1-yl)acetohydrazide]: in series [1], the IC50 is 1 ± 0.04 µM. The compound further gave a cytotoxicity at 7.5 µM in the series on U-937 cells of 50%.
Taken in the same sequence, the figures for `CCc1ccc(CN2CCN(CC(=O)N/N=C/c3cc(C(C)(C)C)cc(C(C)(C)C)c3O)CC2)cc1` [3{28,7}, N′-(3,5-di-tert-butyl-2-hydroxybenzylidene)-2-(4-(4-ethylbenzyl)piperazin-1-yl)acetohydrazide] were 2 ± 0.2 µM and 70%.
With `C=CCc1cccc(/C=N/NC(=O)CN2CCN(Cc3ccccc3)CC2)c1O` [PAC-1], in series [1], the IC50 was found to be 3.8 ± 0.4 µM. Further, in the series with U-937 cells, the cytotoxicity at 7.5 µM came to 21%. For the same compound, the “% cell death” value in series [2] was about 50%. For the same compound, the “serum concentration at doses that can be safely administered” value in series [3] and in series [4] was about 10 µM each time.

As usually defined, the IC50 is the concentration needed to halve the response being measured.
